{
  "source": "paper PMC3521585",
  "about": "(Journal of medicinal chemistry, 2009)",
  "biological_target": "Substance P receptors (GPI) (Cavia porcellus, UniProt P30547)",
  "sequence (P30547 whole entry)": "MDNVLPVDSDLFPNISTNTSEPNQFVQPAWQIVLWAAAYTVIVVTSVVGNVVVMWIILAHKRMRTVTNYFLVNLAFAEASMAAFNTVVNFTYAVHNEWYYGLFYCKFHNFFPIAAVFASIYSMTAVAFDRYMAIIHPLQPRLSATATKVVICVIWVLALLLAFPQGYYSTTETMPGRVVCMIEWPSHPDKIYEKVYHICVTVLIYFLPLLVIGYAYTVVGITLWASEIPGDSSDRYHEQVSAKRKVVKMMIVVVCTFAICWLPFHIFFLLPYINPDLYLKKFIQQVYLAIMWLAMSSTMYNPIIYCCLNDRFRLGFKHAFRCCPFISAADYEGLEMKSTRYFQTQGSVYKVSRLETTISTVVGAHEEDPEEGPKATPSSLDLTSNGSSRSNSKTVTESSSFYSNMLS",
  "experiment": "Substance P antagonist assay in guinea pig ileum with naloxone",
  "assay_type": "cell-based",
  "conditions": "against Substance P induced contraction, 1 μM naloxone, n = 4",
  "data": [
    {"smiles": "CC(=O)N[C@@H](Cc1c[nH]c2ccccc12)C(=O)OCc1cc(C(F)(F)F)cc(C(F)(F)F)c1", "note": "[L-732,138, Ac-Trp-O-3’,5’-Bzl(CF3)2]", "values": [
      {"measurement": "Ke, GPI, Substance P antagonist", "result": "250 ± 87", "unit": "nM"}
    ]}
  ]
}
